From article PMC5608804, “Stepwise Evolution Improves Identification of Diverse Peptides Binding to a Protein Target” (Scientific Reports, 2017)

These substances were tested against T1, streptavidin (Streptomyces avidinii, UniProt P22629) (assay: Cy5-streptavidin binding on HotSpot discovery array, 5-mer L-peptide library). Details: 5-mer L-peptide library array, Cy5-streptavidin; from average of three arrays.
T1 construct: purchased GE Healthcare (Little Chalfont, UK)
How it was run: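 Array of 2,476,099 5-mer peptides (19 amino acids, no cysteine) with Gly-Ser linkers, probed overnight at 4 °C with 0.5 µg/ml Cy5-streptavidin in Tris pH 7.4 buffer containing casein or BSA plus Tween-20. Cy5 fluorescence read at 635 nm; peptides selected by signal-to-background >4 across three arrays.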

T1 sequence (P22629 25-183): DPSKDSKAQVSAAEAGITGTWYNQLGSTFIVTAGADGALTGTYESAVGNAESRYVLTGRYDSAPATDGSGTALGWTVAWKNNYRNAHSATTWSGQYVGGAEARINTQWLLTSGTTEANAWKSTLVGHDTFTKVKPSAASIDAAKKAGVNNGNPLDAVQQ

| Substance | S/B (signal to background ratio) |
| --- | --- |
| HPQVE | 19.8 |
| YWHPM | 54.2 |
| LAMFH [L-amino acid 5-mer array peptide] | 21.1 |
| PVHPM | 27.2 |
| KHHPM | 29.1 |
| GMHPM | 38.8 |
| HPQGY | 53.6 |
| HPQWG | 26.9 |
| ERHPQ | 134.2 |
| HPQGK | 29.8 |
| GPHPQ | 144.4 |
| FHPQN | 168.8 |
| WTHPQ | 181.7 |
| ELHPQ | 56.4 |
| LIHPQ | 120.1 |
| WSHPQ | 215.6 |
| YWHPQ | 148.0 |
| YFHPQ | 183.4 |
| IWHPQ | 174.8 |
| MIHPM | 32.1 |
| IVHPM | 23.5 |
| PAWAH [L-amino acid 5-mer array peptide] | 50.0 |

| Substance | S/B (signal to background ratio) |
| --- | --- |
| KHPQF | 52.9 |
| TPHPM | 44.1 |
| THPQH | 42.7 |
| MQHPQ | 157.5 |
| FPHPQ | 173.5 |
| HQHPQ | 145.4 |
| FHPQA | 138.8 |
| YHPQK | 19.8 |
| QWHPQ | 173.7 |
| IPHPQ | 167.5 |
| MQHPM | 43.9 |
| PHPMV | 24.7 |
| PPHPQ | 150.0 |
| NHPQN | 138.1 |
| YIHPQ | 131.4 |
| FSHPQ | 192.9 |
| FVHPQ | 150.1 |
| QRHPM | 57.2 |
| QSHPQ | 135.3 |
| TMHPQ | 120.6 |
| IHPQF | 148.4 |
| HSHPM | 54.9 |

| Substance | S/B (signal to background ratio) |
| --- | --- |
| PPHPM | 53.6 |
| MHPQA | 138.1 |
| NPHPM | 40.3 |
| MHPQQ | 29.0 |
| PKHPM | 19.4 |
| HPQFS | 123.4 |
| PSHPQ | 136.6 |
| YLHPQ | 152.2 |
| SFHPQ | 121.6 |
| VHPQA | 131.8 |
| HPQAA | 43.7 |
| HHPMF | 19.8 |
| PHPQW | 23.8 |
| GVHPM | 31.6 |
| WKHPQ | 175.0 |
| PLHPM | 39.0 |
| PHHPQ | 140.8 |
| RLHPQ | 137.3 |
| THPQA | 140.8 |
| SGHPM | 54.4 |
| MHHPQ | 178.1 |
| HPQVQ | 49.2 |

| Substance | S/B (signal to background ratio) |
| --- | --- |
| GLHPQ | 132.8 |
| PHPQA | 128.7 |
| HDHPM | 51.4 |
| EHHPM | 31.0 |
| HTHPQ | 139.1 |
| ITHPM | 41.5 |
| HPQSS | 28.2 |
| QSHPM | 42.7 |
| IPHPM | 35.9 |
| HQHPM | 47.3 |
| PHPQQ | 53.1 |
| EMHPQ | 44.9 |
| HFHPQ | 174.7 |
| HPMSG | 45.4 |
| GHPQM | 40.8 |
| QQHPQ | 136.6 |
| WIHPQ | 166.2 |
| LGAYH [L-amino acid 5-mer array peptide] | 52.2 |
| VSHPQ | 129.8 |

Same assay, conditions: 5-mer L-peptide library array, Cy5-streptavidin; from the average of three arrays

| Substance | S/B (signal to background ratio) |
| --- | --- |
| EFHPQ | 100.0 |
| PHPQS | 95.0 |
| TLHPQ | 111.0 |
| QHPQS | 87.0 |
| ANHPQ | 115.8 |
| NIHPQ | 100.3 |
| VHPQS | 73.9 |
| GKHPQ | 73.5 |
| HRHPM | 61.8 |
| WHPQM | 100.1 |
| YHHPM | 85.0 |
| RHPMA | 68.6 |
| WMHPM | 117.2 |
| DPHPQ | 88.5 |
| VIHPQ | 83.6 |
| GHPQA | 110.5 |
| FLHPM | 84.7 |
| DHPQG | 77.3 |
| GRHPM | 62.1 |
| NWHPM | 84.8 |
| EYHPQ | 96.9 |
| TWHPM | 59.8 |
| YLHPM | 70.7 |

| Substance | S/B (signal to background ratio) |
| --- | --- |
| FTHPM | 86.0 |
| EHPQN | 71.2 |
| MHPQS | 75.9 |
| PVHPQ | 99.3 |
| SIHPQ | 118.3 |
| NHPQS | 70.7 |
| HPQFV | 69.2 |
| FSHPM | 91.4 |
| HPQNV | 84.4 |
| TKHPQ | 61.5 |
| WKHPM | 66.5 |
| FHPQM | 58.1 |
| LPHPM | 58.1 |
| IGHPM | 72.3 |
| KHPQA | 92.8 |
| HPQVP | 62.1 |
| VHPQV | 61.3 |
| HPQNQ | 86.9 |
| HPQVY | 64.1 |
| HPQGW | 60.3 |
| HPQFY | 70.7 |
| MHPQF | 107.7 |

Same assay, conditions: 5-mer L-peptide library, from the average of three arrays

| Substance | S/B (signal to background ratio) |
| --- | --- |
| DWDSW [L-amino acid 5-mer array peptide] | 4.9 |
| GLGYH [L-amino acid 5-mer array peptide] | 4.6 |
| HPRWG | 4.2 |
| HPMHW | 4.9 |
| PGWAH [L-amino acid 5-mer array peptide] | 4.8 |
| YHPMI | 4.8 |
| HPQRI | 5.0 |
| HPMKP | 4.6 |
| PHPMW | 5.2 |
| FDDFL [L-amino acid 5-mer array peptide] | 5.0 |
| THPQL | 4.2 |
| HPMHM | 4.4 |
| GPMPD | 4.4 |
| HPAYT | 5.1 |
| HPWRH | 5.0 |
| HPQPQ | 4.4 |

Same assay, conditions: average of three arrays, L-peptide 5-mer library

| Substance | S/B (signal to background ratio) |
| --- | --- |
| DWDSW [L-amino acid 5-mer array peptide] | 4.9 |
| LAMFH [L-amino acid 5-mer array peptide] | 21.1 |
| GLGYH [L-amino acid 5-mer array peptide] | 4.6 |
| FDAWL [L-amino acid 5-mer array peptide] | 11.9 |
| DWDKV [L-amino acid 5-mer array peptide] | 5.7 |
| PAWAH [L-amino acid 5-mer array peptide] | 50.0 |
| NWDEW [L-amino acid 5-mer array peptide] | 7.8 |
| PGWAH [L-amino acid 5-mer array peptide] | 4.8 |
| FDDFL [L-amino acid 5-mer array peptide] | 5.0 |
| FDSWL [L-amino acid 5-mer array peptide] | 8.0 |
| WPPSL [L-amino acid 5-mer array peptide] | 7.7 |
| LGSFH [L-amino acid 5-mer array peptide] | 8.7 |
| LSAYH [L-amino acid 5-mer array peptide] | 17.7 |
| LGAYH [L-amino acid 5-mer array peptide] | 52.2 |

Same assay, conditions: signal to background ratio; 5-mer L-peptide library array, Cy5-streptavidin

| Substance | S/B |
| --- | --- |
| THPMH | 9.5 |
| DHPMK | 13.3 |
| THPMM | 11.1 |
| QHPMI | 6.4 |
| GHPQK | 13.3 |
| IHPQT | 13.6 |
| FDAWL [L-amino acid 5-mer array peptide] | 11.9 |
| HPMYM | 8.3 |
| HPMNM | 9.1 |
| HPMVA | 12.1 |
| DWDKV [L-amino acid 5-mer array peptide] | 5.7 |
| LHPQT | 15.6 |
| HPQRD | 10.7 |
| NWDEW [L-amino acid 5-mer array peptide] | 7.8 |
| DHPMN | 12.4 |
| HPMSA | 8.0 |
| HPQQQ | 10.8 |
| HPQKN | 7.8 |
| NHPQW | 16.4 |
| VHPMQ | 9.6 |
| HPMKN | 8.2 |
| HPQYY | 9.4 |
| PHPMF | 10.9 |
| DHPQT | 8.9 |

| Substance | S/B |
| --- | --- |
| HPQSW | 18.3 |
| HPMQN | 8.8 |
| PHPQD | 15.6 |
| YHPMF | 13.4 |
| HPQTA | 10.4 |
| HPQWQ | 5.5 |
| HPQIF | 6.3 |
| IHPQK | 11.6 |
| HPQRQ | 9.1 |
| GEHPM | 14.8 |
| HHPQL | 5.7 |
| HPQPP | 6.0 |
| IHPMM | 6.6 |
| HPQQH | 12.2 |
| HPQKY | 5.5 |
| FDSWL [L-amino acid 5-mer array peptide] | 8.0 |
| WPPSL [L-amino acid 5-mer array peptide] | 7.7 |
| LGSFH [L-amino acid 5-mer array peptide] | 8.7 |
| HPMHP | 14.9 |
| DDHPM | 11.6 |
| LSAYH [L-amino acid 5-mer array peptide] | 17.7 |
| PHPQK | 14.7 |
| RHPMW | 5.9 |
